# Laboratory results taken from ChEMBL document CHEMBL4392824, “Design, synthesis and bioevaluation of 3-oxo-6-aryl-2,3-dihydropyridazine-4-carbohydrazide derivatives as novel xanthine oxidase inhibitors” (Bioorg Med Chem, 2019).
# Legend:
# [1] = target: T1, Xanthine dehydrogenase/oxidase (Bos taurus, UniProt P80457); assay: Inhibition of bovine xanthine oxidase assessed as reduction in uric acid formation at 10 uM preincubated for 5 mins followed by xanthine addition and measured after 20 mins by spectrophotometry; details: cattle
# T1 sequence (P80457 whole entry): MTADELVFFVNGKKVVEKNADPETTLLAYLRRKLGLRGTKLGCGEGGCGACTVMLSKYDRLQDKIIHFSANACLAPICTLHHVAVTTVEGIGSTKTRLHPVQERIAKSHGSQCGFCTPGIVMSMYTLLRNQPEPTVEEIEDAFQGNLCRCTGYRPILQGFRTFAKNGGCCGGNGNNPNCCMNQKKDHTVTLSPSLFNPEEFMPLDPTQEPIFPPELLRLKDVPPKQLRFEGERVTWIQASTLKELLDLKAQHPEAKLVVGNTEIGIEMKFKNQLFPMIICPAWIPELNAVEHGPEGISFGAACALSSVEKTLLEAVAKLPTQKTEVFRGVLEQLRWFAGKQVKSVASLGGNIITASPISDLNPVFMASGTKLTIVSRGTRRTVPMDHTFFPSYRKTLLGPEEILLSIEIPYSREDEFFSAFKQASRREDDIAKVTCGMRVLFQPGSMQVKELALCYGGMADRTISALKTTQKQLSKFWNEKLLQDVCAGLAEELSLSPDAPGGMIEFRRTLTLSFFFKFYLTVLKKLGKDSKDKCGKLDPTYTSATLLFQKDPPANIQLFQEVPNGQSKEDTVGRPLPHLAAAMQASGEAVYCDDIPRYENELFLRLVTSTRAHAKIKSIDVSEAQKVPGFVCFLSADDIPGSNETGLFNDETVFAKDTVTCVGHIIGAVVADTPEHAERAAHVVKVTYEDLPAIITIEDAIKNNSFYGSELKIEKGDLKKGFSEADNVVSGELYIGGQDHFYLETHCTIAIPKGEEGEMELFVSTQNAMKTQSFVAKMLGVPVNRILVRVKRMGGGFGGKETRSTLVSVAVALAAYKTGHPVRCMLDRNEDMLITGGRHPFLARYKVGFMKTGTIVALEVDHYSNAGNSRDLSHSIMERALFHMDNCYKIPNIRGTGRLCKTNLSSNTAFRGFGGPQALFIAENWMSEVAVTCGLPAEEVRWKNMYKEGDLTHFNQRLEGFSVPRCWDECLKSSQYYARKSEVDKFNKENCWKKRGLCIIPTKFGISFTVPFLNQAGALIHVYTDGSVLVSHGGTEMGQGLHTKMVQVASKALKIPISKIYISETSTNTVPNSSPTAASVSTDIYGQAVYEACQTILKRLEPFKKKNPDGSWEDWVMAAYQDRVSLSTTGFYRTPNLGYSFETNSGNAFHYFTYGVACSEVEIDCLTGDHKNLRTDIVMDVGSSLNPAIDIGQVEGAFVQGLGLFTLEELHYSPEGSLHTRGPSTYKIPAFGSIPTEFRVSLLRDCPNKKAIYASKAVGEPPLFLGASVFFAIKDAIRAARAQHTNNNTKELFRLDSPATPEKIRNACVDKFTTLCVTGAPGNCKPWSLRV
# [2] = target: T1, Xanthine dehydrogenase/oxidase; assay: Inhibition of bovine xanthine oxidase assessed as reduction in uric acid formation preincubated for 5 mins followed by xanthine addition and measured after 20 mins by spectrophotometry
# [3] = target: T1, Xanthine dehydrogenase/oxidase; assay: Mixed type inhibition of bovine xanthine oxidase assessed as reduction in uric acid formation at 0.5 to 2 uM preincubated for 5 mins followed by xanthine addition and measured after 20 mins by spectrophotometry based Lineweaver-Burk plot analysis; details: cattle
SMILES,inhibition at 10 µM [1] [%],IC50 [2],IC50 ([2]; read-out: IC50) [µM],inhibition (INH) [3]
NNC(=O)c1cc(-c2ccccc2)n[nH]c1=O,< 50,Not Active,–,–
CC(C)CCOc1ccc(-c2cc(C(=O)NN)c(=O)[nH]n2)cc1C#N,–,–,4.5,–
CCOc1ccc(-c2cc(C(=O)NN)c(=O)[nH]n2)cc1C#N,–,–,2.54,–
NNC(=O)c1cc(-c2cccc([N+](=O)[O-])c2)n[nH]c1=O,< 50,Not Active,–,–
CC(C)COc1ccc(-c2cc(C(=O)NN)c(=O)[nH]n2)cc1[N+](=O)[O-],–,–,3.65,–
CC(C)COc1ccc(-c2cc(C(=O)NN)c(=O)[nH]n2)cc1,< 50,Not Active,–,–
NNC(=O)c1cc(-c2ccc([N+](=O)[O-])cc2)n[nH]c1=O,< 50,Not Active,–,–
CC(C)Oc1ccc(-c2cc(C(=O)NN)c(=O)[nH]n2)cc1[N+](=O)[O-],–,–,1.92,–
CC(C)COc1ccc(-c2cc(C(=O)O)c(=O)[nH]n2)cc1C#N,< 50,Not Active,–,–
CC(C)Oc1ccc(-c2cc(C(=O)NN)c(=O)[nH]n2)cc1,< 50,Not Active,–,–
CC(C)Oc1ccc(-c2cc(C(=O)NN)c(=O)[nH]n2)cc1C#N,–,–,1.03,Active
CC(C)CCOc1ccc(-c2cc(C(=O)O)c(=O)[nH]n2)cc1C#N,< 50,Not Active,–,–
CCCOc1ccc(-c2cc(C(=O)NN)c(=O)[nH]n2)cc1C#N,–,–,3.1,–
CCCCCOc1ccc(-c2cc(C(=O)NN)c(=O)[nH]n2)cc1C#N,–,–,5.89,–
CC(C)Oc1ccc(-c2cc(C(=O)O)c(=O)[nH]n2)cc1[N+](=O)[O-],< 50,Not Active,–,–
CCCCOc1ccc(-c2cc(C(=O)NN)c(=O)[nH]n2)cc1C#N,–,–,5.24,–
CC(C)COc1ccc(-c2cc(C(=O)NN)c(=O)[nH]n2)cc1C#N,–,–,2.97,–
CC(C)CCOc1ccc(-c2cc(C(=O)NN)c(=O)[nH]n2)cc1[N+](=O)[O-],–,–,6.02,–
